# Data taken from US9802962B2, “Tricyclic pyrone compounds reduce amyloid beta aggregates” (priority 2013, dated 2017).
# “Also recorded” adds a separate entry of the source.
# Columns and labels:
# MC65 neuroblastoma cells = assay: MC65 protection assay; format: cell-based
# Experimental: Employing medium-throughput cell-based MC65 protection assay to screen over one hundred TP compounds, seven TP compounds that protect MC65 neuroblastoma cells from death caused by intracellular Aβ have been identified. […] The EC50 values for CP2, TP70, and TP101 are 120, 80, and 70 nM, respectively.
# [1] = tested on: ABCA1 cholesterol transporter gene; assay: Increase of ABCA1 cholesterol transporter gene; format: cell-based
# From the text: It has been reported that an induction of cholesterol efflux resulting in a reduction of Aβ formation/deposition in vitro and in vivo (Kim, et al., J Alzheimers Dis, 2009, 16:121-131). For additional Detail, see the attached manuscript entitled, “Inhibition of Acyl-CoA: Cholesterol Acyltransferase (ACAT), Overexpression of Cholesterol Transporter Gene, and Protection of Amyloid β (Aβ) Oligomers-Induced Neuronal Cell Death by Tricylic Pyrone Molecules” which is incorporated herein.
# rat hippocampal slices = assay: Long-term potentiation (LTP) in rat hippocampal slices; format: cell-based
# Experimental: FIGS. 2A-2B. Effects of TP70 on rat hippocampal LTP. FIG. 2A. Top panels show superimposed field excitatory post-synaptic potentials (EPSPs) taken from baseline and 45 min following high frequency stimulation (HFS, four 1-s trains of 100 pulses of 0.2 ms delivered at 100 Hz, inter-train interval of 20 s) of the Schaffer collateral-CA1 synapses. FIG. 2B. […] In Control HFS induced LTP. AβO blocked LTP. TP70 (1 μM) restored LTP in the presence of AβO. TP70 alone enhanced LTP.
# We further investigated effects of TP70 on basal neurotransmission and synaptic plasticity, for example long-term potentiation (LTP) in rat hippocampal slices as previously described (Villeda, et al., Nature, 2011, 477:90-94; Xie, et al., Pflugers Arch, 1994, 427:481-486).
# [2] = Plasma and brain concentrations after i.v. administration in mice; format: in vivo
# Experimental: FIGS. 3A-3B. FIG. 3A. CP2 and TP70 plasma and brain concentrations following i.v. injection in mice (n=3). FIG. 3B. […] The drug concentration was determined using HPLC and mass spectrometry.
# HPLC/mass spectrometry were employed to quantify CP2 and TP70 in the plasma and brain after i.v. administration in mice. The CP2 concentration was 200-300 μM in the mouse brain between 0.5 and 2 h following 25 mg/kg i.v. administration (FIG. 3A). Similarly, TP70 concentration reached 190 μM in plasma at 5 min and 160 μM in brain at 2 h following 25 mg/Kg i.v. administration (FIGS. 3A and 3B).
# [3] = Plasma PK and bioavailability, iv versus po, in mice; format: in vivo
# Experimental: FIG. 5. Plasma concentrations of TP70 following iv or po administration (25 mg/Kg; iv, n=3 in each timepoint; or po, n=3 in each timepoint). Plasma concentrations were plotted against time post-dosing.
# Since the drug will ultimately be administered orally, the bioavailability (F) of TP70 was determined in mice (male C57BL/6, 4 to 6 months old, n=3/group). Each mouse was treated with TP 70 (25 mg/kg). The drug was initially dissolved in pure dimethyl sulfoxide (DMSO) and then diluted with 0.5% hydroxypropylcellulose (HPC) in distilled water in a final solution containing 2% DMSO. At different time points about 50 μl plasma was sampled via tail cut for blood collection with a tube treated with ethylenediaminetetraacetic acid (EDTA). The compound was measured using HPLC/mass spectrometer. The maximal plasma concentration following iv administration is 16.6±6.1 μg/ml (equivalent to 42 μM) and po is 6.9±0.17 μg/ml (equivalent to 17 μM).
# 5×FAD mice = assay: In vivo efficacy in 5×FAD mice
# Experimental: FIGS. 6A-6E. 2-month-old 5×FAD mice were treated with TP70 or vehicle for 6 weeks as described in the text. Four cortical sections evenly distributed through the cerebrum were taken from one hemisphere of each mouse (6 mice in each treatment group) and fluorescently stained with the amyloid dye FSB (blue) and the nuclear dye propidium iodide (PI, red). A: Representative sections that show the PI stain. B: Representative sections that only show the FSB stain. C: Fluorescent staining was objectively quantified by LSC. […] E: A representative Western blot containing the soluble fractions of three mice of each group was analyzed for soluble Aβ dimer (see ref 59 for the method).
# Although the mechanism of neuron loss in Alzheimer's disease (AD) remains elusive, it is associated with cerebral accumulation of Aβ42. The 5×FAD mouse model of amyloid deposition expresses five familial AD (FAD) mutations that are additive in driving Aβ42 overproduction.
# wildtype mice (C57BL/6) = assay: Rotarod performance in wildtype mice; format: in vivo; conditions: 50 mg/kg ip, one hour after dosing, Day 5
# Experimental: FIG. 9. Effects of TP70 on mouse rotarod performance. The mice were trained three times every day for 4 days to reach its maximal performance using SmartCage Rotarod device (with a setting of a constant speed at 15 […] per minute).
# To further assess side effects on motor activity, and particularly balance and muscle coordination, rotarod performance was conducted by the wildtype mice (C57BL/6 female, 2 months old, n=7). Vehicle injection (i.p) was given after the Day 4 training to assess any effects of vehicle or injection per se. On Day 5, one hour after TP70 (50 mg/kg, ip) the mice were subject to the rotarod test.
# [4] = Cerep in vitro profiling (protein binding, absorption, metabolic stability, off target activity); format: in vitro ADME; conditions: Caco-2, P-gp, human liver microsomes, CYPs, HepG2 viability, hERG
compound,measurement,setting,value
Cc1cc2c(c(=O)o1)C=C1CCC(C(C)CNCc3ccc(O)cc3)CC1O2 (stereo not drawn) [TP70],concentration required for cell toxicity protection,MC65 neuroblastoma cells,submicromolar
same,EC50 values (in words),MC65 neuroblastoma cells; protection of MC65 cells from death caused by intracellular Aβ,nanomolar range
same,EC50,"MC65 neuroblastoma cells; protection of MC65 cells from death caused by intracellular Aβ, read-out: effective concentrations for 50% cell survival (EC50)",80 nM
same,EC50,[1],1100 nM
same,concentration required for enhancing synaptic activity and LTP restoration,rat hippocampal slices,0.1 to 3 µM
same,LTP in the presence of AβO,"rat hippocampal slices; 1 μM, perfused 20 min prior to co-application of AβO",restored LTP; also recorded: restored LTP to the non-AβO-treated level
same,basal synaptic activity,rat hippocampal slices; compound alone,without affecting basal synaptic activity
same,"magnitude of LTP, compound alone",rat hippocampal slices; without AβO,significantly enhanced the magnitude of LTP
same,brain concentration,"[2]; brain at 2 h, 25 mg/Kg i.v.",160 µM
same,CNS penetration,"[2]; i.v., mice",good CNS penetration
same,plasma concentration,"[2]; plasma at 5 min, 25 mg/Kg i.v.",190 µM
same,elimination t½,"[2]; plasma, i.v., 3-compartment model fit",2.5 h
same,Average concentration of TP70 in plasma,"[3]; iv route, 5 min",16.6 ± 6.1 mg/L
same,Average concentration of TP70 in plasma,"[3]; iv route, 15 min",10.2 ± 4 mg/L
same,Average concentration of TP70 in plasma,"[3]; iv route, 30 min",8.2 ± 3.5 mg/L
same,Average concentration of TP70 in plasma,"[3]; iv route, 60 min",3.7 ± 0.8 mg/L
same,Average concentration of TP70 in plasma,"[3]; iv route, 120 min",2.02 ± 0.6 mg/L
same,Average concentration of TP70 in plasma,"[3]; iv route, 240 min",1.8 ± 0.5 mg/L
same,Average concentration of TP70 in plasma,"[3]; iv route, 360 min",0.9 ± 0.3 mg/L
same,F,"[3]; iv route, fraction",1
same,Area under the curve (AUC),"[3]; iv, 25 mg/kg",989
same,maximal plasma concentration,"[3]; iv, 25 mg/kg",16.6 ± 6.1 µg/mL
same,maximal plasma concentration (equivalent),"[3]; iv, 25 mg/kg",42 µM
same,t1/2,"[3]; iv, 25 mg/kg",around 30 min
same,Average concentration of TP70 in plasma,"[3]; oral gavage (po) route, 15 min",2.8 ± 0.09 mg/L
same,Average concentration of TP70 in plasma,"[3]; oral gavage (po) route, 30 min",3.9 ± 0.14 mg/L
same,Average concentration of TP70 in plasma,"[3]; oral gavage (po) route, 60 min",6.9 ± 0.17 mg/L
same,Average concentration of TP70 in plasma,"[3]; oral gavage (po) route, 120 min",4.2 ± 0.19 mg/L
same,Average concentration of TP70 in plasma,"[3]; oral gavage (po) route, 240 min",2.4 ± 1.37 mg/L
same,Average concentration of TP70 in plasma,"[3]; oral gavage (po) route, 360 min",1.2 ± 0.23 mg/L
same,bioavailability (F),"[3]; po versus iv, 25 mg/kg",68%
same,Area under the curve (AUC),"[3]; po, 25 mg/kg",678
same,maximal plasma concentration,"[3]; po, 25 mg/kg",6.9 ± 0.17 µg/mL
same,maximal plasma concentration (equivalent),"[3]; po, 25 mg/kg",17 µM
same,"plaque count (FSB stain), cortical sections","5×FAD mice; 2-month-old 5×FAD mice, 6 weeks oral treatment, versus vehicle, LSC",substantial reduction of plaque count
same,"nuclear count (PI stain), cortical sections","5×FAD mice; 2-month-old 5×FAD mice, 6 weeks treatment, versus vehicle, LSC",no difference in nuclear count
same,cerebral amyloid load,5×FAD mice; 5×FAD mice,substantially reduce
same,drug toxicity during the course of treatment,5×FAD mice; 5×FAD mice,no apparent drug toxicity
same,"histopathology, hematological counts, and blood chemistry at necropsy",5×FAD mice; 5×FAD mice,No abnormalities
same,levels of toxic Aβ dimers,5×FAD mice; 5×FAD mice,substantially reduce
same,rotarod performance,wildtype mice (C57BL/6),insignificant effects
same,druggable profile versus currently used drugs or reference compounds,[4],druggable profiles better or similar to several currently used drugs or reference compounds
